What was measured:
Midostaurin = compound: CO[C@@H]1[C@H](N(C)C(=O)c2ccccc2)C[C@H]2O[C@]1(C)n1c3ccccc3c3c4c(c5c6ccccc6n2c5c31)C(=O)NC4 [Midostaurin]; assay: relative viability (nuclei count vs DMSO), 5 days (fraction); higher = more cells survive
Procedure, shortened: (§1)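 A plate was accepted only when its control CV was below 25% and the cells had doubled at least once. Viability is defined from nuclear counts as treated wells divided by vehicle wells, with the median taken across plates. That median covers lung cancer cell lines grown in 1536-well plates, dosed by pinning at five √10-spaced library-drug concentrations, and counted in MetaXpress from 4× Hoechst images after 5 days.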

[1] = compound: COc1cc(-c2nn([C@H]3CC[C@H](N4CCN(C(C)=O)CC4)CC3)c3ncnc(N)c23)ccc1NC(=O)c1cc2ccccc2n1C; assay: as above
Procedure, shortened: as §1

Cell Line	relative viability (Midostaurin; 0.01 µM)	relative viability (Midostaurin; 0.03162 µM)	relative viability (Midostaurin; 0.1 µM)	relative viability (Midostaurin; 0.3162 µM)	relative viability ([1]; 0.0128 µM)	relative viability ([1]; 0.04048 µM)	relative viability ([1]; 0.128 µM)	relative viability ([1]; 1.28 µM)
201T	0.984	0.918	1	1.03	1.02	1.03	0.927	0.716
A549	0.994	0.857	0.953	0.744	0.995	0.952	0.979	0.957
A-427	0.927	0.879	1.03	0.985	1.05	0.837	0.973	0.863
ABC-1	0.867	0.962	0.948	0.96	0.879	0.885	0.756	0.805
BEN	0.98	0.964	1.03	1.19	0.816	0.985	0.884	0.702
CAL-12T	1.05	0.882	0.921	0.839	1.03	1.03	1.06	0.991
COR-L23	0.998	0.946	0.958	0.875	1.06	1.1	0.92	1.08
COR-L 105	0.953	0.858	0.828	0.874	0.811	1.09	0.863	0.596
Calu-6	0.946	0.984	0.985	1.01	1.04	1.04	0.899	0.764
ChaGo-K-1	0.919	1.07	0.932	1.02	1.03	0.98	0.891	0.898
EBC-1	1.01	0.9	0.959	0.684	1.06	1.07	1.01	1.02
EKVX	0.991	0.886	0.95	1	0.941	1.06	0.987	0.56
EMC-BAC-2	0.928	0.903	0.858	0.954	1.04	1.17	0.941	0.957
EPLC-272H	1.04	0.944	0.93	0.969	0.906	0.873	0.963	0.865
H3255	0.971	0.948	0.876	0.966	0.996	0.962	0.946	0.763
HARA	0.98	0.87	0.974	0.932	1.03	0.828	0.879	0.612
HCC-15	1.05	0.902	1.05	1.05	1.21	0.785	0.971	1.06
HCC-44	1	0.965	0.996	0.985	1.06	1.13	0.954	1.17
HCC-78	1.01	0.814	1.03	0.606	1.06	1.06	0.912	0.567
HCC-366	0.913	1.03	1.02	0.955	0.995	1.04	0.977	0.916
HCC-827	1.02	1.04	0.972	1.04	0.98	1.03	0.957	0.753
HOP-62	0.88	0.893	1.06	1.1	1.11	0.962	1.03	1.12
IA-LM	0.93	0.677	0.918	0.941	1.04	0.999	1.05	0.991
LC-2-ad	0.97	0.936	0.957	0.892	1.09	0.976	0.959	0.958
LCLC-97TM1	1.02	0.867	1.06	1.17	0.943	0.879	0.946	0.931
LCLC-103H	1.05	0.922	0.979	1	1.06	1.01	1	1.07
LK-2	0.998	1.04	0.947	1	1	0.949	0.943	0.794

Cell Line	relative viability (Midostaurin; 0.01 µM)	relative viability (Midostaurin; 0.03162 µM)	relative viability (Midostaurin; 0.1 µM)	relative viability (Midostaurin; 0.3162 µM)	relative viability ([1]; 0.0128 µM)	relative viability ([1]; 0.04048 µM)	relative viability ([1]; 0.128 µM)	relative viability ([1]; 1.28 µM)
LOU-NH91	1.02	0.89	0.967	1	0.985	1.04	0.978	0.853
LU99A	0.881	1.14	0.887	0.939	1.03	0.84	0.998	0.982
LXF-289	1.03	1.01	0.973	1.03	1.11	0.989	1.01	1.06
NCI-H23	1.05	0.962	0.791	0.562	0.951	0.726	0.901	0.946
NCI-H322M	1	0.852	1.06	1.34	0.995	0.897	0.909	0.69
NCI-H358	0.949	0.93	1.08	0.85	0.889	0.703	0.702	0.335
NCI-H441	0.954	1.03	0.874	0.902	1.03	0.976	0.922	0.84
NCI-H460	1.04	1.01	0.997	1.01	0.977	0.983	0.907	0.989
NCI-H520	0.914	0.96	1.07	0.863	0.79	0.959	0.836	0.778
NCI-H522	1.07	1.06	0.947	1.04	0.936	0.875	0.954	0.885
NCI-H596	0.946	1.01	1.15	1.17	1.03	0.95	0.833	0.836
NCI-H647	0.919	0.88	0.962	0.884	1.09	0.961	0.88	0.623
NCI-H650	0.779	0.844	0.922	0.858	1.13	1.25	0.911	1.01
NCI-H661	0.963	0.869	0.991	1.11	1.02	1.07	1	0.779
NCI-H727	1.03	0.82	1.05	0.767	0.974	–	0.826	0.906
NCI-H838	1	0.927	0.801	0.667	0.953	0.995	0.899	0.728
NCI-H1299	1.01	0.974	0.975	0.965	1.06	1.11	1	1
NCI-H1355	1	0.948	1.09	1.04	1.06	0.981	0.943	0.953
NCI-H1395	0.919	0.977	0.88	0.922	0.907	0.847	0.798	0.659
NCI-H1437	0.96	0.999	0.972	0.92	0.979	1.04	0.964	0.906
NCI-H1563	1.09	1.03	0.957	0.769	1.04	1.12	0.971	0.709
NCI-H1623	0.982	0.956	1.05	1.23	1.01	1.05	0.946	0.739
NCI-H1648	0.937	0.803	0.724	0.927	0.964	0.766	0.858	0.721
NCI-H1650	0.915	0.957	0.921	0.937	0.922	1.1	0.941	0.812
NCI-H1651	0.95	1	1.01	1.09	0.97	1.07	0.923	0.968
NCI-H1666	1.03	0.953	0.992	0.888	0.98	0.872	0.947	0.941
NCI-H1703	0.958	0.869	0.64	0.266	0.968	0.581	0.803	0.324

Cell Line	relative viability (Midostaurin; 0.01 µM)	relative viability (Midostaurin; 0.03162 µM)	relative viability (Midostaurin; 0.1 µM)	relative viability (Midostaurin; 0.3162 µM)	relative viability ([1]; 0.0128 µM)	relative viability ([1]; 0.04048 µM)	relative viability ([1]; 0.128 µM)	relative viability ([1]; 1.28 µM)
NCI-H1734	0.939	0.939	0.998	0.871	1	0.944	0.948	0.783
NCI-H1755	0.983	0.983	0.962	0.977	1.12	0.983	0.937	0.938
NCI-H1792	0.954	0.697	0.929	0.777	0.975	0.878	1.02	0.951
NCI-H1793	1.16	0.848	0.89	0.762	0.904	0.827	0.858	0.649
NCI-H1915	0.951	0.946	0.951	1.03	1.03	0.783	0.957	0.831
NCI-H1944	0.963	0.987	0.931	1.15	1.09	0.983	0.921	0.769
NCI-H1975	0.888	0.971	0.878	0.799	0.958	0.972	0.875	0.479
NCI-H1993	0.948	1.01	1.17	0.802	0.966	0.737	0.834	0.87
NCI-H2009	0.972	0.904	0.961	0.939	1.01	0.861	0.927	0.973
NCI-H2023	1.07	0.893	0.922	0.59	1.02	1.13	0.923	0.906
NCI-H2085	1.06	0.889	1.02	0.919	1.01	1.01	0.99	0.992
NCI-H2087	0.972	0.938	0.985	1.26	1.09	–	1.1	1.11
NCI-H2126	1.02	0.872	0.999	1.02	1.04	1.01	0.963	0.792
NCI-H2170	0.973	0.941	1.01	1	1.07	0.996	0.991	0.821
NCI-H2228	1.02	0.969	1.22	1.18	1.22	1	1.12	0.744
NCI-H2342	0.913	0.903	1.04	0.989	0.807	1.03	1	0.932
NCI-H2347	1.12	0.97	1.06	1.09	1.01	0.781	1.04	1.08
NCI-H2405	1.01	1.05	0.883	1.07	1.06	0.667	0.964	0.526
NCI-H3122	1.03	0.962	0.95	1.05	1.07	–	0.987	0.76
PC-3 [JPC-3]	0.991	0.907	1.07	1.1	1.01	1.09	1.01	1.09
PC-14	0.995	0.988	0.963	0.961	1.09	1.13	0.957	1.08
RERF-LC-KJ	1.02	1.01	1.04	1.04	1	0.991	0.94	0.896
SK-LU-1	0.976	1.05	1.02	0.953	1.08	0.994	0.864	0.597
SK-MES-1	0.998	0.92	0.967	0.89	1.02	1.07	1.01	0.912
SW 900	0.821	0.777	0.964	0.745	1.03	0.986	0.788	1
SW 1573	0.991	1.08	1.05	0.969	0.926	0.922	0.982	0.766

Source: the supplement of paper PMC10307832
